# Reference: patent publication US20150190369A1, “QUERCETIN-3-GLUCOSIDE AND USES THEREOF” (priority 2012, published 2015)
# “Also recorded” adds a separate entry of the source. Read-outs that look alike come from different tables or passages of the source.
# What was measured:
# PCSK9 = assay: Semi-quantitative immunoblotting for cellular PCSK9 in Huh7 cells; assay type: cell-based, human
# Method: At passage, Huh7 cells were routinely seeded at sub-confluence (˜10^6 cells/10-cm dish) in Dulbecco's modified Eagle's medium (DMEM) containing 10% fetal bovine serum (FBS) or LPDS (for experiments) and 50 μg/ml gentamycin. They were incubated overnight at 37° C., in a humidified 5% CO2-95% air atmosphere. Cells were treated or not with Q3G at defined concentrations and for defined lengths of time. Media were collected and centrifuged at 200 g for 5 min to sediment suspended cells; supernatants were collected and supplemented with 0.33 volumes of a 3×-concentrated PIC. Cell monolayers were rinsed with ice-cold phosphate-buffered saline (PBS); they were overlaid with […] the RIPA lysis buffer (50 mM Tris-HCl, pH 8, 150 mM NaCl, 1% NP-40, 0.5% Na-deoxycholate and 0.1% SDS) supplemented with 1× PIC. After 20 min in an ice bath, the lysates were centrifuged at 14,000 g and 4° C. for 20 min, and supernatants were collected. Conditioned media and lysates were stored at −20° C. until analysis.
# Cell lysates were fractionated by SDS-PAGE and electrophoretically transferred onto a polyvinylidene fluoride membrane. The membrane was incubated with a goat antihuman LDLR, rabbit anti-PCSK9, or rabbit anti-SREBP-2 polyclonal antibody at 1:1000, 1:1500, and 1:200 dilutions, respectively, and then with a HRP-conjugated heterospecific secondary antibody against the primary Igs at a 1:2000 dilution. It was probed for HRP reaction using the Western Lightning Chemiluminescence Reagent Plus a chemiluminescence-based revelation kit. The signal was captured on X-ray film and immunoreactive bands analyzed by densitometry on a Syngene's ChemiGenius^2XE Bio Imaging System (Cambridge, Mass.) within the dynamic range of the instrument. The membrane was stripped and reprobed with the anti-β-actin monoclonal primary antibody at 1:20,000 dilution and HRP-conjugated rabbit anti-mouse IgG secondary antibody at a 1:5000 dilution. The densitometric values of β-actin bands were using for normalization of experimental samples. […]
# ABCA1 mRNA = assay: qRT-PCR for ABCA1 mRNA in MIN6 β-cells; assay type: cell-based, mouse; conditions: MIN6, 24 h
# Method: (§1) Mouse insulinoma MIN6 cells were cultured in a 5% CO2-95% air atmosphere at 37° C. in DMEM medium containing 10% heat-inactivated fetal bovine serum, 1 mM Na-pyruvate, 2 mM L-glutamine, 25 mM D-glucose, and 28 μM β-mercaptoethanol. Q3G at a specific final concentration was supplemented to the culture medium and incubation was conducted for a selected length of time. Media were collected, spun at 600 g to sediment suspended cells, supplemented with 0.5 volumes of 3×RIPA-PIC (1×: 50 mM Tris-HCl, pH 8, 150 mM NaCl, 1% NP-40, 0.5% Na-deoxycholate and 0.1% SDS and PIC). Cells were lysed in 1×RIPA-PIC for immuno-blotting, or in RNA extraction buffer for qRT-PCR.
# (§2) For the mouse studies, the levels of specific mRNAs were quantified in a PCR-based fluorogenic assay using the Taqman technology (Holland et al., 1991). Briefly, total RNA was extracted using the RNeasy extraction kit and reverse-transcribed into cDNA using random hexameric primers and the Superscript II RNase H-Reverse Transcriptase. […] Standard curves were established using varying amounts of pre-quantified amplicons of each transcript. […]
# (§3) MIN6 β-cells were incubated for 24 h in the presence of different concentrations of Q3G. Total RNA was extracted and analyzed by qRT-PCR for the levels of mRNA for PCSK9, LDLR, ABCA1 and ABCG1.
# ABCG1 mRNA = assay: qRT-PCR for ABCG1 mRNA in MIN6 β-cells; assay type: cell-based, mouse; conditions: MIN6, 24 h
# Method: as §1, §2, §3
# MIN6 β-cells = assay: GSIS assay (glucose-stimulated insulin secretion, insulin ELISA); assay type: cell-based, mouse; conditions: MIN6, stimulation with 18 mM glucose, 30 min
# Method: The assays for PCSK9 and insulin were conducted as prescribed by kit manufacturers, using a Thermo Scientific plate reader. For example, PCSK9 levels in conditioned media were measured using the human PCSK9 ELISA kit from Circulex, as specified the manufacturer. The assay was a sandwich immunoassay using two antibodies (A and B) recognizing different PCSK9 epitopes. Briefly, aliquot of diluted media were overlaid on wells coated with anti-PCSK9 antibody A. After 1-h incubation, the wells were washed, overlaid with a solution of HRP-conjugated anti-PCSK9 antibody B, and incubated for 1 h. They were washed again, and overlaid with a solution of tetra-methylbenzidine as a chromogenic substrate for HRP. After 15 min, the reaction was stopped with […] and the absorbance of the reaction mixtures measured by spectrophotometry at 450 nm. All the steps were performed at room temperature. Standards consisted of recombinant human PCSK9.
# Cells were seeded and grown to 80% confluence. Prior to GSIS assay, fresh medium containing 3 mM Glucose and 10% FBS medium (low-glucose medium or LGM) without or with Q3G was substituted and incubation resumed for 6 h to adapt the cells to low glucose. Fresh LGM without or with Q3G was substituted and supplemented or not with glucose to the final concentration of 18 mM. […]
# [1] = pigs, meal supplement; cited from earlier work
# [2] = dogs, meal supplement; cited from earlier work
compound,measurement,setting,value
"O=c1c(O[C@@H]2O[C@H](CO)[C@@H](O)[C@H](O)[C@H]2O)c(-c2ccc(O)c(O)c2)oc2cc(O)cc(O)c12 [Q3G, quercetin-3-O-β-D-glucoside]",lag before PCSK9 accumulation in the cells,"PCSK9; Huh7, 2 μM Q3G, time course",3 h
same,amount of cellular PCSK9,"PCSK9; Huh7, 24 h, co-treatment 5 μM Q3G with simvastatin 0.2 and 1 μM",further increased
same,increase of PCSK9 protein in the cells,"PCSK9; Huh7, 24 h, highest Q3G concentration tested (0 to 10 μM)",1.9 ×
same,effect on ABCA1 mRNA levels,ABCA1 mRNA; Q3G 8 mM and above,reducing
same,increase of ABCA1 mRNA levels,ABCA1 mRNA; Q3G up to 4 mM,about 50%
same,effect on ABCG1 mRNA levels,ABCG1 mRNA; Q3G 8 mM and above,reducing
same,increase of ABCG1 mRNA levels,ABCG1 mRNA; Q3G up to 4 mM,about 50%
same,"glucose-stimulated insulin secretion, treated versus untreated cells",MIN6 β-cells,comparable; also recorded: without affecting
same,quercetin bioavailability versus quercetin aglycone and rutin,[1],significantly greater
same,quercetin bioavailability versus quercetin aglycone and rutin,[2],significantly greater
